# In patent publication US12508266B2 (priority 2010, dated 2025):
# System: A/NJ/15/2007 (H1N1-H274Y)
# Format: cell-based, influenza
smiles,measurement,value
"Nc1ncnc2c([C@@H]3N[C@H](CO)[C@@H](O)[C@H]3O)c[nH]c12 [Compound 1, (2S,3S,4R,5R)-2-(4-Amino-5H-pyrrolo[3,2-d]pyrimidin-7-yl)-5-(hydroxymethyl) pyrrolidine-3,4-diol]",EC50,1.39 µg/mL
